Source: US10626095B2, “Cyanotriazole compounds” (OTSUKA PHARMACEUTICAL CO., LTD., priority 2013, dated 2020)
pEC50: −log10 of the molar value.

Legend:
[1] = test system: NaCT-CHO (CHO cells stably expressing human NaCT); test: Assay of the citric acid cycle activation ([1,5-14C]-citric acid, diffusion of [14C]-CO2); type: cell-based; settings: 1 hour incubation at 37° C. with [1,5-14C]-citric acid
Outline: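 NaCT-CHO cells (pME-CHO empty-vector cells for non-specific counts) were incubated 1 h at 37 °C in Na+-containing HEPES-Tris pH 7.4 with compound plus an equal volume of 0.4 mM [1,5-14C]-citric acid solution. Residual cell radioactivity was counted, [14C]-CO2 diffusion was taken as (Total−R)/(Total−NS)×100%, and EC50 was derived by regression.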

[2] = test system: Zucker Diabetic Fatty (ZDF) rat; test: Meal load test in type 2 diabetic model rats (postprandial blood glucose); type: in vivo; parameters: unit not given here; settings: ZDF rats fasted overnight, oral 30 mg/kg in 5% Arabia gum, blood glucose one hour after meal loading (50 kcal/kg)
Description: Effects on Type 2 Diabetes: Meal Load Test
To evaluate whether a cyanotriazol compound improves diabetes or not, especially related to postprandial blood glucose, meal load test was performed using one of type 2 diabetic model rats, the Zucker Diabetic Fatty (ZDF) rat (Charles river, Japan). About 24 animals fasted overnight (17 h) were taken blood samples from the tail veins, and measured blood glucose levels (Pre BG) and body weights (BW). Proper animals were selected and divided into […] (n=6) based on the Pre BG and BW using SAS Statistical Analysis System (SAS institute Japan Ltd. Release 9.1). The compounds to be tested (10 or 30 mg/kg body weight in 5% Arabia gum) or Arabia gum solution only (vehicle group) were orally administrated via gavage two hours prior to or just before meal loading (50 kcal/kg body weight). The meal suspension was prepared by mixing purified AIN-93G (Norsan Corp, Yokohama, Japan) and distilled water (2:3, w/v). One-hour after meal loading, blood glucose (BG1h) of each animal was measured. Effectiveness of each compound was shown by ? BG1h (BG1h difference between compound group and vehicle group). Although a set of 24 animals was used several times (from 13 weeks to 21 weeks of age), at least a one-week interval was placed from one to another test.

SMILES | pEC50 [1] | BG1h (BG1h difference between compound group and vehicle group) [2]
N#Cc1[nH]nnc1-c1cccc(-c2cccc(C(F)(F)F)c2)n1 [Example 141, 5-[6-(3-trifluoromethyl-phenyl)-pyridin-2-yl]-3H-[1,2,3]triazole-4-carbonitrile] | 6.15 | –
CCC(OCc1ccc(C(F)(F)F)cc1)c1cccc(-c2nn[nH]c2C#N)n1 (centres unmarked) [Example 142, 5-{6-[1-(4-trifluoromethyl-benzyloxy)-propyl]-pyridin-2-yl}-3H-[1,2,3]triazole-4-carbonitrile] | 6.24 | –
N#Cc1[nH]nnc1-c1ccc(-c2cccc(C(F)(F)F)c2)nc1 [Example 143, 5-[6-(3-trifluoromethyl-phenyl)-pyridin-3-yl]-3H-[1,2,3]triazole-4-carbonitrile] | 5.99 | –
N#Cc1[nH]nnc1C1CCN(c2cc(C(F)(F)F)ccc2C(F)(F)F)CC1 [Example 144, 5-[1-(2,5-bis-trifluoromethyl-phenyl)-piperidin-4-yl]-3H-[1,2,3]triazole-4-carbonitrile] | 6.10 | –
N#Cc1[nH]nnc1-c1ccc2ccn(-c3ccc(F)c(F)c3)c2c1 [Example 145, 5-[1-(3,4-difluoro-phenyl)-1H-indol-6-yl]-3H-[1,2,3]triazole-4-carbonitrile] | 6.43 | –
N#Cc1[nH]nnc1-c1sc2ccccc2c1-c1ccc(F)cc1 [Example 148, 5-[3-(4-fluoro-phenyl)-benzo[b]thiophen-2-yl]-3H-[1,2,3]triazole-4-carbonitrile] | 6.04 | –
N#Cc1[nH]nnc1Cc1cccc(-c2cccc(C(F)(F)F)c2)c1 [Example 149, 5-(3′-trifluoromethyl-biphenyl-3-ylmethyl)-3H-[1,2,3]triazole-4-carbonitrile] | 6.15 | –
N#Cc1[nH]nnc1CCc1ccccc1OCc1cc(C(F)(F)F)ccc1C(F)(F)F [Example 150, 5-{2-[2-(2,5-bis-trifluoromethyl-benzyloxy)-phenyl]-ethyl}-3H-[1,2,3]triazole-4-carbonitrile] | 6.07 | –
CC(OC(=O)OCC(C)(C)C(=O)O)n1nc(C#N)c(-c2cccc(OCc3cc(C(F)(F)F)ccc3C(F)(F)F)c2)n1 (centres unmarked) [Example 1806, 3-(1-{4-[3-(2,5-bis-trifluoromethyl-benzyloxy)-phenyl]-5-cyano-2H-[1,2,3]triazol-2-yl}-ethoxycarbonyloxy)-2,2-dimethyl-propionic acid] | – | −86.3
CC(OC(=O)OCC(C)(C)C(=O)O)n1nc(C#N)c(-c2cc(Cl)cc(-c3ccc4c(c3)OC(F)(F)O4)c2)n1 (centres unmarked) [Example 1808, 3-(1-{4-[3-chloro-5-(2,2-difluoro-benzo[1,3]dioxol-5-yl)-phenyl]-5-cyano-2H-[1,2,3]triazol-2-yl}-ethoxycarbonyloxy)-2,2-dimethyl-propionic acid] | – | −76.0
CC(OC(=O)OCC(C)(C)C(=O)O)n1nc(C#N)c(-c2cc(Cl)cc(-c3nccc(C(F)(F)F)n3)c2)n1 (centres unmarked) [Example 1810, 3-(1-{4-[3-chloro-5-(4-trifluoromethyl-pyrimidin-2-yl)-phenyl]-5-cyano-2H-[1,2,3]triazol-2-yl}-ethoxycarbonyloxy)-2,2-dimethyl-propionic acid] | – | −53.2
CC(OC(=O)OCC(C)(C)C(=O)O)n1nc(C#N)c(-c2cc(Cl)cc(/C=C/c3cccc(C(F)(F)F)c3)c2)n1 (centres unmarked) [Example 1811, 3-[1-(4-{3-chloro-5-[(E)-2-(3-trifluoromethyl-phenyl)-vinyl]-phenyl}-5-cyano-2H-[1,2,3]triazol-2-yl)-ethoxycarbonyloxy]-2,2-dimethyl-propionic acid] | – | −84.5
COc1cc(-c2cc(C(F)(F)F)ccn2)cc(-c2nn(C(C)OC(=O)OCC(C)(C)C(=O)O)nc2C#N)c1 (centres unmarked) [Example 1812, 3-(1-{4-cyano-5-[3-methoxy-5-(4-trifluoromethyl-pyridin-2-yl)-phenyl]-2H-[1,2,3]triazol-2-yl}-ethoxycarbonyloxy)-2,2-dimethyl-propionic acid] | – | −111.8
CC(OC(=O)OCC(C)(C)C(=O)O)n1nc(C#N)c(-c2cc(/C=C/c3cccc(C(F)(F)F)n3)cc(C(F)(F)F)c2)n1 (centres unmarked) [Example 1813, 3-[1-(4-cyano-5-{3-trifluoromethyl-5-[(E)-2-(6-trifluoromethyl-pyridin-2-yl)-vinyl]-phenyl}-2H-[1,2,3]triazol-2-yl)-ethoxycarbonyloxy]-2,2-dimethyl-propionic acid] | – | −73.0
CC(OC(=O)OCC(C)(C)C(=O)O)n1nc(C#N)c(-c2csc(-c3ccc(Cl)cc3)n2)n1 (centres unmarked) [Example 1814] | – | −108.7
CC(OC(=O)OCC(C)(C)C(=O)O)n1nc(C#N)c(-c2cccc(/C=C/c3cc(C(F)(F)F)ccn3)c2)n1 (centres unmarked) [Example 1815, 3-[1-(4-cyano-5-{3-[(E)-2-(4-trifluoromethyl-pyridin-2-yl)-vinyl]-phenyl}-2H-[1,2,3]triazol-2-yl)-ethoxycarbonyloxy]-2,2-dimethyl-propionic acid] | – | −63.2
CC(OC(=O)OCC(C)(C)C(=O)O)n1nc(C#N)c(-c2cccc(/C=C/c3nccc(C(F)(F)F)n3)c2)n1 (centres unmarked) [Example 1816, 3-[1-(4-cyano-5-{3-[(E)-2-(4-trifluoromethyl-pyrimidin-2-yl)-vinyl]-phenyl}-2H-[1,2,3]triazol-2-yl)-ethoxycarbonyloxy]-2,2-dimethyl-propionic acid] | – | −45.5
CC(OC(=O)OCC(C)(C)C(=O)O)n1nc(C#N)c(-c2nc(-c3cccc(C(F)(F)F)c3)sc2Cl)n1 (centres unmarked) [Example 1817, 3-(1-{4-[5-chloro-2-(3-trifluoromethyl-phenyl)-thiazol-4-yl]-5-cyano-2H-[1,2,3]triazol-2-yl}-ethoxycarbonyloxy)-2,2-dimethyl-propionic acid] | – | −106.5
CC(OC(=O)OCC(C)(C)C(=O)O)n1nc(C#N)c(-c2csc(-c3cccc(OC(F)(F)F)c3)n2)n1 (centres unmarked) [Example 1818, 3-(1-{4-cyano-5-[2-(3-trifluoromethoxy-phenyl)-thiazol-4-yl]-2H-[1,2,3]triazol-2-yl}-ethoxycarbonyloxy)-2,2-dimethyl-propionic acid] | – | −33.0
CC(OC(=O)OCC(C)(C)C(=O)O)n1nc(C#N)c(-c2csc(-c3ccc(Cl)c(Cl)c3)n2)n1 (centres unmarked) [Example 1819, 3-(1-{4-cyano-5-[2-(3,4-dichloro-phenyl)-thiazol-4-yl]-2H-[1,2,3]triazol-2-yl}-ethoxycarbonyloxy)-2,2-dimethyl-propionic acid] | – | −54.3
Cc1sc(-c2ccc(C(F)(F)F)cc2)nc1-c1nn(C(C)OC(=O)OCC(C)(C)C(=O)O)nc1C#N (centres unmarked) [Example 1820, 3-(1-{4-cyano-5-[5-methyl-2-(4-trifluoromethyl-phenyl)-thiazol-4-yl]-2H-[1,2,3]triazol-2-yl}-ethoxycarbonyloxy)-2,2-dimethyl-propionic acid] | – | −77.0
CC(C)c1oc(-c2ccc(Cl)cc2)nc1-c1nn(C(C)OC(=O)OCC(C)(C)C(=O)O)nc1C#N (centres unmarked) [Example 1822, 3-(1-{4-[2-(4-chloro-phenyl)-5-isopropyl-oxazol-4-yl]-5-cyano-2H-[1,2,3]triazol-2-yl}-ethoxycarbonyloxy)-2,2-dimethyl-propionic acid] | – | −36.0
Cc1sc(-c2ccc(F)c(Cl)c2)nc1-c1nn(C(C)OC(=O)OCC(C)(C)C(=O)O)nc1C#N (centres unmarked) [Example 1823, 3-(1-{4-[2-(3-chloro-4-fluoro-phenyl)-5-methyl-thiazol-4-yl]-5-cyano-2H-[1,2,3]triazol-2-yl}-ethoxycarbonyloxy)-2,2-dimethyl-propionic acid] | – | −63.3
Cc1cc(-c2ccc(C(F)(F)F)nc2)cc(-c2nn(C(C)OC(=O)OCC(C)(C)C(=O)O)nc2C#N)c1 (centres unmarked) [Example 1825, 3-(1-{4-cyano-5-[3-methyl-5-(6-trifluoromethyl-pyridin-3-yl)-phenyl]-2H-[1,2,3]triazol-2-yl}-ethoxycarbonyloxy)-2,2-dimethyl-propionic acid] | – | −48.3
CC(OC(=O)OC(C)(C)CC(=O)O)n1nc(C#N)c(-c2cccc(OCc3cc(C(F)(F)F)ccc3C(F)(F)F)c2)n1 (centres unmarked) [Example 1827, 3-(1-{4-[3-(2,5-bis-trifluoromethylbenzyloxy)phenyl]-5-cyano-2H-[1,2,3]triazol-2-yl}ethoxycarbonyloxy)-3-methylbutyric acid] | – | −82.5
CC(OC(=O)OCCO)n1nc(C#N)c(-c2cccc(OCc3cc(C(F)(F)F)ccc3C(F)(F)F)c2)n1 (centres unmarked) [Example 1828, carbonic acid 1-{4-[3-(2,5-bis-trifluoromethylbenzyloxy)phenyl]-5-cyano-2H-[1,2,3]triazol-2-yl}ethyl ester-2-hydroxyethyl ester] | – | −69.3
